Key:
human D2 receptor = human D2 receptor (Homo sapiens (Human), UniProt P14416); test: Test 1: binding activity for human D2 receptor ([3H]Spiperone, CHO cell membrane fraction); details: human D2 receptor, [3H]Spiperone
Description: (§1) Test 1: Evaluation of Binding Activity for Human 5-HT1A Receptor, Human 5-HT2A Receptor, and Human D2 Receptor
(§2) Binding affinity of the present compound for human 5-HT1A receptor, human 5-HT2A receptor, and human D2 receptor was measured by the following procedures.
(§3) Each mixture was incubated at room temperature for 60 minutes. Then, the mixture was added quickly on a glassfiber filter plate (Multiscreen FB, Millipore, Inc.) coated with 0.3% aqueous polyethylenimine, and vacuum-filtered. Radioactivity remaining on the filter was measured with a liquid scintillation counter (PerkinElmer, Inc.). Binding inhibition rate was calculated from the following formula.
(§4) Ki of each compound was calculated from the following formula. Binding inhibition constant (Ki)=IC50/(1+S/Kd) wherein S is concentration of ligand; Kd is a binding dissociation constant of ligand to membrane, which is calculated from a saturated binding experiment conducted with the same cell membrane. A small Ki value means strong binding ability to a receptor.

hERG channel = hERG channel (Homo sapiens (Human), UniProt Q12809); test: Test 6-1: inhibitory activity for hERG channel (auto patch clamp, Qpatch); type: cell-based; details: whole cell auto patch clamp, hERG-CHO cells; read-out: hERG inhibition IC50
hERG channel, sequence (Q12809 whole entry): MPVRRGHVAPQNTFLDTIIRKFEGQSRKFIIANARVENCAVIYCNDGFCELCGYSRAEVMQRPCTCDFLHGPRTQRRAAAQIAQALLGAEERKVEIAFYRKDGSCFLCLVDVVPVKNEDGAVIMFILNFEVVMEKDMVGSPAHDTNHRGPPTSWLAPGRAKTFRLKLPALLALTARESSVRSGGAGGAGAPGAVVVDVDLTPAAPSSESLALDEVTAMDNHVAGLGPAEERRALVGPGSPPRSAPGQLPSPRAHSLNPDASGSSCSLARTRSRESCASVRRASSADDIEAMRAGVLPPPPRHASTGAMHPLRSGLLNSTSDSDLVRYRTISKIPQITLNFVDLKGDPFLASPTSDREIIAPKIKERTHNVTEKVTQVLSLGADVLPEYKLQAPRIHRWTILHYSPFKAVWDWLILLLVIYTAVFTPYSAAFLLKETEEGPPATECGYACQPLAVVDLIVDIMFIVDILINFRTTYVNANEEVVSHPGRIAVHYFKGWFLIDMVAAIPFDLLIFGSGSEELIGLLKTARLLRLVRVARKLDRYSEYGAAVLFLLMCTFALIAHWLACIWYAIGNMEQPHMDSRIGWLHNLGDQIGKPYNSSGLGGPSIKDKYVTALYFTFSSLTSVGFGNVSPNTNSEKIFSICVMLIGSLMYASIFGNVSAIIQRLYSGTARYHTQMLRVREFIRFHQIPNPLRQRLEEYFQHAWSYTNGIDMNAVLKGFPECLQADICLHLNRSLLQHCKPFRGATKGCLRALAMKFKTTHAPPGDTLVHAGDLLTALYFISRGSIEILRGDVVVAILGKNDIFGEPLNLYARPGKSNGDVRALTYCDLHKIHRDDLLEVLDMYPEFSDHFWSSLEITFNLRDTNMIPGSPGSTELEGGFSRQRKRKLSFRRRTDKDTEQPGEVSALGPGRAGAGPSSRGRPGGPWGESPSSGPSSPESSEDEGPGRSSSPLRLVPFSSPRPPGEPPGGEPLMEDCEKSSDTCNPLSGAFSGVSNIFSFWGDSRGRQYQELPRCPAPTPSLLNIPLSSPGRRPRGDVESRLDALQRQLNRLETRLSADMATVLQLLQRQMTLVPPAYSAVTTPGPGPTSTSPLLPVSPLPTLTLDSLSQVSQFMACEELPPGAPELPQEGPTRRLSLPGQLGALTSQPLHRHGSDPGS
Description: Test 6-1: Evaluation of Inhibitory Activity for hERG Channel
Inhibitory activity of the present compound for hERG channel was measured by whole cell patch clamp method with an auto patch clamp system using CHO cells in which hERG channel involved in human rapidly activating delayed rectifier potassium current (IKr) was forcibly expressed.
hERG-CHO cells purchased from ChanTest Cop. were cultured in a CO2 incubator at 37° C., and dissociated from a flask with trypsin shortly before the measurement of hERG current, to prepare a cell suspension.
Extracellular fluid: 2 mmol/L CaCl2, 1 mmol/L MgCl2, 10 mmol/L HEPES, 4 mmol/L KCl, 145 mmol/L NaCl, 10 mmol/L Glucose
Intracellular fluid: 5.4 mmol/L CaCl2, 1.8 mmol/L MgCl2, 10 mmol/L HEPES, 31 mmol/L KOH, 10 mmol/L EGTA, 120 mmol/L KCl, 4 mmol/L Na2-ATP
Test compound solution: Test compound was dissolved in DMSO to reach the concentration of 2 mmol/L or 20 mmol/L, in order to prepare a test compound solution. […] (Measurement of Current Value and Data Analysis)
The cell suspension, the extracellular fluid, the intracellular fluid, and the measurement plate were set in the auto patch clamp system, and hERG current was measured by whole cell patch clamp method. […] Each pulse interval was 15 seconds. The data analysis was carried out with Qpatch Assay Software (Biolin Scientific). The test was carried out by applying incrementally 4 concentrations of each test compound, and the average of the maximum peak tail currents which were obtained from the last 3 stimulations in each concentration was determined as the evaluated data. Based on the current inhibition rate for a pre-applied current at each concentration of each test compound, IC50 value was calculated by Hill equation with the software.

[1] = Test 4: metabolic stability test in human hepatic microsome; type: in vitro ADME; details: 0.1 mg/mL microsome, 0.1 μmol/L compound, 37° C., 30 minutes
Description: Test 4: Metabolic Stability Test in Human Hepatic Microsome
The stability of the present compound in human hepatic microsome metabolism was evaluated as mentioned below. Human hepatic microsome was obtained from Xenontech. Human hepatic microsome, NADPH, and each test compound were mixed in 25 mmol/L phosphate buffer solution (pH 7.4) to reach the following concentrations as shown below, and the mixture was incubated at 37° C. for 30 minutes. • Human hepatic microsome: 0.1 mg/mL • NAPDH: 3.2 mmol/L • Test compound: 0.1 μmol/L
The residual ratio of the test compound in each sample after 30 minutes was measured by LC-MS, and the metabolic stability in human hepatic microsome was calculated from the following formula. Metabolic stability in human hepatic microsome (mL/min/mg protein)=−LN (residual ratio)/30/0.1

human 5-HT1A receptor [2] = molecular target: T1, human 5-HT1A receptor (Homo sapiens (Human), UniProt P08908); test: Test 2: agonist activity for human 5-HT1A receptor ([35S]GTPγS binding); type: biochemical; details: for EC50: [35S]GTPγS binding, concentration at which half the activity of Emax was obtained; for Emax at 10 µM: agonist activity in the presence of 10 μM of compound, relative to 100 μmol/L 5-HT
T1 sequence (P08908 whole entry): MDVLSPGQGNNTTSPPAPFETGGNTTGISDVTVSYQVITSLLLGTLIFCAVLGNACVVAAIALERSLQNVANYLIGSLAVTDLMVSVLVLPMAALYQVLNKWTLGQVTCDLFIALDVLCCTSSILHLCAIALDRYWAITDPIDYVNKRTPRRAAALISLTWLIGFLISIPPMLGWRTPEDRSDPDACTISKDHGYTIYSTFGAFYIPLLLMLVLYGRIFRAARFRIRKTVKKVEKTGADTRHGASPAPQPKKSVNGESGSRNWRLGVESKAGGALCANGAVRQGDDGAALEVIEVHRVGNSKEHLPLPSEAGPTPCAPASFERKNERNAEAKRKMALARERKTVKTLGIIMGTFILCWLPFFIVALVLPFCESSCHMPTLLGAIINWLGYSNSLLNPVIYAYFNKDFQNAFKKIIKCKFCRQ
Description: Test 2: Evaluation of Agonist Activity for Human 5-HT1A Receptor
CHO cell membrane fraction in which human 5-HT1A receptor was expressed as used in Test 1 was purchased. To a buffer containing guanosine diphosphate were added a test compound dissolved in DMSO, each receptor membrane sample diluted with buffer, and [^35S] Guanosine 5′-O-[gamma-thio]triphosphate (GTPγS). The mixture was incubated at room temperature for 60 minutes. Then, the mixture was added quickly on a glassfiber filter plate (Multiscreen FB, Millipore, Inc.), and vacuum-filtered. Radioactivity remaining on the […] was measured with a liquid scintillation counter. Agonist activity was calculated from the following formula.

human 5-HT1A receptor [3] = molecular target: T1, human 5-HT1A receptor; test: Test 1: binding activity for human 5-HT1A receptor ([3H]8-OH-DPAT, CHO cell membrane fraction)
Description: as §1, §2, §3
as §4, with “IC50 value was calculated by Hill analysis (Physiology, 1910, 40, 190-200). Ki of” for “Ki of”

human D2 receptor, sequence (P14416 whole entry): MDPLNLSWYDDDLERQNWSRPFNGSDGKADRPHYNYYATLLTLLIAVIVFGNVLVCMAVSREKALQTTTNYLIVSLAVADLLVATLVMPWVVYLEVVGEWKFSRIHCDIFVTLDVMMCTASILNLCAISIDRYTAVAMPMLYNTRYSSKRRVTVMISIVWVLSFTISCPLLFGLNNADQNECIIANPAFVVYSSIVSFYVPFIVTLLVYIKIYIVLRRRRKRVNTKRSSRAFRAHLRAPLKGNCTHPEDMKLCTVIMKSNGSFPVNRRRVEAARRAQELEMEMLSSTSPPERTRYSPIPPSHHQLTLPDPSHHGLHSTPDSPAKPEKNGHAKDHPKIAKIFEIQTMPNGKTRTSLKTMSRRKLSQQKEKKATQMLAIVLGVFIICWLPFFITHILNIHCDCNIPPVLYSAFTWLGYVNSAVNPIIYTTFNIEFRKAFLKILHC

Compound | Ki (human D2 receptor) [nM] | IC50 (hERG channel) [nM] | Metabolic stability in human hepatic microsome [1] [mL/min/mg protein] | EC50 (human 5-HT1A receptor [2]) [nM] | Emax at 10 µM (human 5-HT1A receptor [2]) [%] | Ki (human 5-HT1A receptor [3]) [nM]
COc1cc2c(cn1)C(=O)N(CCN1CCN(c3noc4ccccc34)CC1)CC2 [Example 20] | 1890 | 5400 | 0.091 | 4.72 | 52 | 0.77
Cn1ncc2c1CCC(CCN1CCN(c3nsc4ccccc34)CC1)C2=O (stereo not drawn) [Example 29] | 143 | 2300 | 0.063 | 64.5 | 42 | 0.68
Cn1ncc2c1CCN(CCN1CCC(c3noc4ccccc34)CC1)C2=O [Example 130] | 541 | 1600 | <0.05 | 841 | 44 | 23.8
Cc1noc2ccn(CCN3CCC(c4noc5ccccc45)CC3)c(=O)c12 [Example 132] | 750 | 700 | 0.148 | 74.5 | 59 | 16
Cc1cc2c(n1C)CCCN(CCN1CCN(c3nsc4ccccc34)CC1)C2=O [Example 167] | 71 | 1800 | 0.413 | 0.84 | 60 | 0.14
Cc1nc2c(o1)CCN(CCN1CCC(c3noc4ccccc34)CC1)C2=O [Example 39] | 1860 | 1800 | 0.016 | 9.06 | 61 | 0.84
O=C1c2ncccc2CCN1CCN1CCC(c2noc3ccc(F)cc23)CC1 [Example 5] | 7830 | 2400 | <0.01 | 91.6 | 60 | 5.78
CC(C)n1cc2c(n1)CCN(CCN1CCN(c3nsc4ccccc34)CC1)C2=O [Example 162] | 508 | 1200 | 0.196 | 55 | 61 | 13.8
Cc1nc(C)c2c(=O)n(CCN3CCC(c4noc5ccccc45)CC3)ccc2n1 [Example 114, 6-{2-[4-(1,2-Benzoisoxazol-3-yl)piperidin-1-yl]ethyl}-2,4-dimethylpyrido[4,3-d]pyrimidin-5(6H)-one] | 309 | 2700 | 0.102 | 43.8 | 64 | 11.3
O=c1c2ncccc2ccn1CCN1CCN(c2noc3ccccc23)CC1 [Example 117] | 1740 | 4400 | <0.05 | 570 | 40 | 36.6
O=C1c2c(Br)n[nH]c2CCN1CCN1CCC(c2noc3ccccc23)CC1 [Example 192, 5-{2-[4-(1,2-Benzoisoxazol-3-yl)piperidin-1-yl]ethyl}-3-bromo-1,5,6,7-tetrahydro-4H-pyrazolo[4,3-c]pyridin-4-one] | 219 | 700 | <0.05 | 7670 | 11 | 200
Cn1cc2c(n1)CCCN(CCN1CCN(c3nsc4ccccc34)CC1)C2=O [Example 42] | 119 | 2400 | 0.100 | 23.5 | 57 | 2.19
O=C1c2sccc2CCN1CCN1CCC(c2noc3ccccc23)CC1 [Example 126] | 93 | < 300 | 0.135 | 67.2 | 60 | 15.9
COc1cc2c(cn1)C(=O)N(CCN1CCC(c3noc4ccccc34)CC1)CC2 [Example 14] | 136 | 800 | <0.01 | 2.87 | 42 | 0.15
Cn1ncc2c1C(=O)N(CCN1CCC(c3noc4ccccc34)CC1)CCC2 [Example 155] | 114 | 700 | 0.121 | 74.2 | 63 | 14
O=C1c2ncccc2CCN1CCN1CCN(c2nsc3cc(F)ccc23)CC1 [Example 27] | 230 | 1300 | 0.048 | 55.4 | 58 | 6.04
Cc1noc2c1C(=O)N(CCN1CCC(c3noc4ccccc34)CC1)CC2 [Example 33] | 1010 | 600 | 0.074 | 463 | 49 | 9.35
Cc1ccc2onc(C3CCN(CCN4CCc5cccnc5C4=O)CC3)c2c1 [Example 89] | 2250 | 1300 | 0.050 | 53.8 | 39 | 3.44
Cc1n[nH]c2c1C(=O)N(CCN1CCC(c3noc4ccccc34)CC1)CC2 [Example 99, 5-{2-[4-(1,2-Benzoisoxazol-3-yl)piperidin-1-yl]ethyl}-3-methyl-1,5,6,7-tetrahydro-4H-pyrazolo[4,3-c]pyridin-4-one] | 280 | 2900 | <0.01 | 185 | 40 | 21.5
O=C1c2[nH]ncc2CCN1CCN1CCC(c2noc3ccccc23)CC1 [Example 98, 6-{2-[4-(1,2-Benzoisoxazol-3-yl)piperidin-1-yl]ethyl}-1,4,5,6-tetrahydro-7H-pyrazolo[3,4-c]pyridin-7-one] | 312 | 1100 | 0.013 | 755 | 43 | 11.6
Cn1ncc2c1CCN(CCN1CCN(c3nsc4ccccc34)CC1)C2=O [Example 63] | 791 | 7800 | <0.01 | 16 | 73 | 6.5
Cc1nc2c(o1)CCN(CCN1CCN(c3nsc4ccccc34)CC1)C2=O [Example 51] | 993 | 5100 | 0.074 | 2.08 | 61 | 0.23
